Assay results from ChEMBL document CHEMBL1157845, “Structure-activity relationship of new anti-tuberculosis agents derived from oxazoline and oxazole benzyl esters” (Eur J Med Chem, 2010).
≈ marks a conversion by molar mass, not a printed value. Calls of active or inactive are those of the source. No rule for the calls is given here.

Columns and labels:
[1] = system: Mycobacterium tuberculosis; experiment: Antimycobacterial activity against Mycobacterium tuberculosis Erdman infected in BALB/c mouse assessed as reduction of bacterial load at 200 mg/kg, po qd for 5 days per week administered 60 days after infection measured after 85 days post infection; format: functional, organism-based; set-up: dose 200 mg/kg
[2] = system: Mycobacterium tuberculosis; experiment: Antimycobacterial activity against Mycobacterium tuberculosis H37Rv ATCC 27294 in GAS medium after 1 week by microplate alamar blue assay; format: functional; settings: H37Rv ATCC 27294, 168 h
[3] = system: Mycobacterium tuberculosis; experiment: Antimycobacterial activity against Mycobacterium tuberculosis H37Rv ATCC 27294 in GAST medium after 1 week by microplate alamar blue assay; format: functional; settings: H37Rv ATCC 27294, 168 h
[4] = system: Vero; experiment: Cytotoxicity against african green monkey Vero cells by colorimetric assay; format: cell-based; settings: Chlorocebus sabaeus
[5] = system: Mycobacterium tuberculosis; experiment: Antimycobacterial activity against Mycobacterium tuberculosis H37Rv ATCC 27294 incubated 10 days under anaerobic condition measured after 24 hrs recovery in air by luciferase based low oxygen recovery assay; format: functional

## Cc1oc(-c2ccccc2)nc1C(=O)OCc1ccccc1
[1]
  Activity: inactive
[2]
  MIC: 3.92 µM (≈ 1.15 µg/mL)
[3]
  MIC: 15.2 µM (≈ 4.46 µg/mL)
[4]
  IC50: 35 µM
[5]
  MIC: > 128 µM

## Cc1oc(-c2ccc(F)cc2[N+](=O)[O-])nc1C(=O)OCc1ccccc1
[1]
  Activity: inactive
[2]
  MIC: 15 µM (≈ 5.34 µg/mL)
[3]
  MIC: 4.62 µM (≈ 1.65 µg/mL)
[4]
  IC50: > 128 µM
[5]
  MIC: > 128 µM

## O=C(OCc1ccccc1)c1coc(-c2ccc(F)cc2[N+](=O)[O-])n1
[1]
  Activity: inactive
[2]
  MIC: 2.4 µM (≈ 0.821 µg/mL)
[3]
  MIC: 9.9 µM (≈ 3.39 µg/mL)
[4]
  IC50: > 128 µM

## O=C(OCc1ccccc1)[C@@H]1COC(c2ccc([N+](=O)[O-])cc2)=N1
[1]
  Activity: inactive
[2]
  MIC: 30.6 µM (≈ 9.99 µg/mL)
[3]
  MIC: 7.59 µM (≈ 2.48 µg/mL)
[4]
  IC50: > 128 µM

## O=C(OCc1ccccc1)[C@@H]1COC(c2ccc(OCc3ccccc3)c(F)c2)=N1
[1]
  Activity: inactive
[2]
  MIC: 0.77 µM (≈ 0.312 µg/mL)
[3]
  MIC: 1.42 µM (≈ 0.576 µg/mL)
[4]
  IC50: > 128 µM

## COc1ccc(-c2nc(C(=O)OCc3ccccc3)co2)cc1F
[1]
  Activity: inactive
[2]
  MIC: 5.55 µM (≈ 1.82 µg/mL)
[3]
  MIC: 6.99 µM (≈ 2.29 µg/mL)
[4]
  IC50: > 128 µM

## O=C(OCc1ccccc1)c1coc(-c2cncc(-c3ccccc3)c2)n1
[1]
  Activity: inactive
[2]
  MIC: 1.49 µM (≈ 0.531 µg/mL)
[3]
  MIC: 0.98 µM (≈ 0.349 µg/mL)
[4]
  IC50: > 128 µM

## O=C(OCc1ccccc1)c1coc(-c2ccc(Br)nc2)n1
[1]
  Activity: inactive
[2]
  MIC: 2.54 µM (≈ 0.912 µg/mL)
[3]
  MIC: 1.84 µM (≈ 0.661 µg/mL)
[4]
  IC50: > 128 µM
[5]
  MIC: 25.1 µM (≈ 9.02 µg/mL)

## O=C(OCc1ccccc1)[C@@H]1COC(c2ccc([N+](=O)[O-])c(F)c2)=N1
[1]
  Activity: inactive
[2]
  MIC: 30.2 µM (≈ 10.4 µg/mL)
[3]
  MIC: 3.68 µM (≈ 1.27 µg/mL)
[4]
  IC50: > 128 µM
[5]
  MIC: 59 µM (≈ 20.3 µg/mL)

## COc1ccc(-c2nc(C(=O)OCc3ccccc3)co2)cc1Cl
[1]
  Activity: inactive
[2]
  MIC: 2.35 µM (≈ 0.808 µg/mL)
[3]
  MIC: 5.33 µM (≈ 1.83 µg/mL)
[4]
  IC50: > 128 µM

## O=C(OCc1ccccc1)c1coc(-c2ccc([N+](=O)[O-])cc2F)n1
[1]
  Activity: inactive
[2]
  MIC: 0.7 µM (≈ 0.24 µg/mL)
[3]
  MIC: 1.65 µM (≈ 0.565 µg/mL)
[4]
  IC50: > 128 µM
[5]
  MIC: 11.6 µM (≈ 3.97 µg/mL)

## COc1ccc(C2=N[C@H](C(=O)OCc3ccccc3)CO2)cc1
[1]
  Activity: inactive
[2]
  MIC: 26.1 µM (≈ 8.13 µg/mL)
[3]
  MIC: 2.29 µM (≈ 0.713 µg/mL)
[4]
  IC50: > 128 µM

## Nc1ccc(-c2nc(C(=O)OCc3ccccc3)co2)cc1
[1]
  Activity: inactive
[2]
  MIC: 1.98 µM (≈ 0.583 µg/mL)
[3]
  MIC: 3.67 µM (≈ 1.08 µg/mL)
[4]
  IC50: > 128 µM
[5]
  MIC: 68.6 µM (≈ 20.2 µg/mL)

## O=C(O)[C@@H]1COC(c2ccccc2)=N1
[1]
  Activity: inactive
[2]
  MIC: > 128 µM
[3]
  MIC: > 128 µM

## COc1cccc(-c2nc(C(=O)OCc3ccccc3)co2)c1
[1]
  Activity: inactive
[2]
  MIC: 6.04 µM (≈ 1.87 µg/mL)
[3]
  MIC: 3.76 µM (≈ 1.16 µg/mL)
